According to patent US5968965A, “Inhibitors of farnesyl-protein transferase” (Merck & Co., Inc., priority 1997, dated 1999):
Structures can show the parent of a compound that is named as a salt.

Molecular target: T1, human FPTase (Homo sapiens, UniProt P49354+P49356)
T1 construct: made in house
Experiment: In vitro inhibition of Ras farnesyl transferase (human FPTase)
Type: biochemical
Conditions: [3H]-FPP incorporation, 100 nM Ras-CVIM, 30 min; read-out: IC50 against human FPTase

IC50: < 10 µM
Compound: N#Cc1ccc(Cn2cncc2CCC(=O)Nc2cccc(Cl)c2)cc1 [Example 1, N-(3-chlorophenyl)-3-[1-(4-cyanobenzyl)-5-imidazolyl]propionamide hydrochloride]
